For one data set, the target named is T1, human α7 nAChR (Homo sapiens, UniProt P36544).
T1 construct: host or cells: Xenopus laevis oocytes injected with cRNA
The experiment in a line: Two-electrode voltage clamp of Xenopus oocytes expressing α7 nAChR (co-injected with RIC-3). Type of data set: cell-based. The following applies: for activation of α7 in the presence of PNU-120596: co-applied with 10 μM PNU-120596; for activation of α7 when applied alone (absence of PAM): no PNU-120596, compared to 60 μM ACh controls; for EC50: normalized to 60 μM ACh controls. On the procedure: (§1) Human nAChR clones and concatamers were obtained from Dr. J. Lindstrom (University of Pennsylvania, Philadelphia, PA). The human resistance-to-cholinesterase 3 (RIC-3) clone, obtained from Dr. M. Treinin (Hebrew University, Jerusalem, Israel), was co-injected with α7 to improve the level and speed of α7 receptor expression without affecting the pharmacological properties of the receptors. Subsequent to linearization and purification of the plasmid cDNAs, cRNAs were prepared using the mMessage mMachine in vitro RNA transfection kit (Ambion, Austin, TX).
Oocytes were surgically removed from mature Xenopus laevis frogs (Nasco, Ft. Atkinson, WI) and injected with appropriate nAChR subunit cRNAs as described previously. Frogs were maintained in the Animal Care Service facility of the University of Florida, and all procedures were approved by the University of Florida Institutional Animal Care and Use Committee. In brief, the frog was first anesthetized for 15–20 min in 1.5 L frog tank water containing 1 g of 3-aminobenzoate methanesulfonate buffered with sodium bicarbonate. The harvested oocytes were treated with 1.25 mg/ml collagenase (Worthington Biochemicals, Freehold, NJ) for 2 h at room temperature in calcium-free Barth’s solution (88 mM NaCl, 1 mM KCl, 2.38 mM NaHCO3, 0.82 mM MgSO4, 15 mM HEPES, and 12 mg/l tetracycline, pH 7.6) to remove the follicular layer. Stage V oocytes were subsequently isolated and injected with 50 nl of 5–20 ng nAChR subunit cRNA. Recordings were carried out 1–7 days after injection.
Experiments were conducted using OpusXpress 6000A (Molecular Devices, Union City, CA). Both the voltage and current electrodes were filled with 3 M KCl. Oocytes were voltage-clamped at -60 mV. The oocytes were bath-perfused with Ringer’s solution (115 mM NaCl, 2.5 mM KCl, 1.8 mM CaCl2, 10 mM HEPES, and 1 μM atropine, pH 7.2) at 2 ml/min for α7 receptors and at 4 ml/min for other subtypes. To evaluate the effects of experimental compounds compared to ACh-evoked responses of various nAChR subtypes expressed in oocytes, baseline conditions were defined by two initial applications of ACh made before test applications. The solutions were applied from a 96-well plate via disposable tips, and the test compounds were applied alone, co-applied with ACh, or co-applied with PNU-120596. For the concentration-response study, drug applications alternated between ACh controls and experimental compounds. Unless otherwise indicated, drug applications were 12 s in duration followed by a 181 s washout period for α7 receptors and 6 s with a 241 s washout for other subtypes. A typical recording for each oocyte constituted two initial control applications of ACh, an experimental compound application, and then a follow-up control application of ACh to determine the desensitization or rundown of the receptors. The control ACh concentrations were 60 μM for α7, 100 μM for α3β4, and 30 μM for α4β2. The responses of α4β2 and α3β4-expressing cells were measured as peak current amplitudes, and the α7 data were calculated as net charge, as previously described.
(§2) Data were collected at 50 Hz, filtered at 20 Hz, analyzed by Clampfit 9.2 (Molecular Devices) and Excel 2003 (Microsoft, Redmond, WA), and normalized to the averaged peak current or net-charge response of the two initial ACh controls for each oocyte. Data were expressed as means ± SEM from at least four oocytes for each experiment and plotted by Kaleidagraph 3.0.2 (Abelbeck Software, Reading, PA). Multi-cell averages were calculated for comparisons of complex responses. To permit better comparisons between experiments each single cell response was normalized to the average of the two initial controls obtained from that cell. Averages of the normalized data were calculated for each of the 10,500 points in each of the 210 s traces (acquired at 50 Hz), as well as the standard errors for those averages.
A general note: In two-electrode clamp one electrode senses voltage and the other passes current.

Data set [1] has as its target T2, α6β2β3α4β2 concatamer nAChR (Homo sapiens, UniProt P17787+P43681+Q15825). More on the design: method as in PMID 20923852. The following applies: cited from earlier work.
Data set [2] deals with T3, LS α4(3)β2(2) nAChR (Homo sapiens, UniProt P17787+P43681).
T3 construct: host or cells: Xenopus laevis oocytes injected with cRNA
T3 sequence (P17787+P43681 fused): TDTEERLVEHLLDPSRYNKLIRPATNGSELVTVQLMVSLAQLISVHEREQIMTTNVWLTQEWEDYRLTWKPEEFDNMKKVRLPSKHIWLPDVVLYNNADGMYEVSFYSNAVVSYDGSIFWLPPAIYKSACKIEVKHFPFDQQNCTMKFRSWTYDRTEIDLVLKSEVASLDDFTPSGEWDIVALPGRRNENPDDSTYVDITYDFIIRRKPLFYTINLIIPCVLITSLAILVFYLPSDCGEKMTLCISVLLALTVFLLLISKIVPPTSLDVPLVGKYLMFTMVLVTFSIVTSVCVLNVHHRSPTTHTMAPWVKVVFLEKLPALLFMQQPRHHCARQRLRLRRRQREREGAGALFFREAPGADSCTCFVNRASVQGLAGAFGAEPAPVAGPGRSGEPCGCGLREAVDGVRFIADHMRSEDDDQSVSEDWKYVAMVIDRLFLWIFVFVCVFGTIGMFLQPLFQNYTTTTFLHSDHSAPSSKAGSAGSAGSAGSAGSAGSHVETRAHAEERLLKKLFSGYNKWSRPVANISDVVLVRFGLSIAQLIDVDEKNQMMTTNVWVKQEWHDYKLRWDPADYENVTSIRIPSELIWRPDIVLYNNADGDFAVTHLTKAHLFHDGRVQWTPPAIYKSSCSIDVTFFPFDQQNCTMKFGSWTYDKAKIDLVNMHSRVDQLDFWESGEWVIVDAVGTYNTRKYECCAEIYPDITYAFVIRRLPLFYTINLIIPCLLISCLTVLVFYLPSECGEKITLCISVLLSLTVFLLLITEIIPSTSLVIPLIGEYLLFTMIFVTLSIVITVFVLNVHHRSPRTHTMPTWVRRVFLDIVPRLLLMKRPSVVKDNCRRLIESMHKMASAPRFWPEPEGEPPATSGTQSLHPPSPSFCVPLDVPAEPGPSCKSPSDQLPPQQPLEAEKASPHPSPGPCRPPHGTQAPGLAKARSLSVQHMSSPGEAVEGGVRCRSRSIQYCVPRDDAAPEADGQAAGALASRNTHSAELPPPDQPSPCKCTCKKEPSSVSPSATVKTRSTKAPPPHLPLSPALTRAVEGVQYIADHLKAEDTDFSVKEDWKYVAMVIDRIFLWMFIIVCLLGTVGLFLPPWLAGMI
T3 sequence (P43681 27-627): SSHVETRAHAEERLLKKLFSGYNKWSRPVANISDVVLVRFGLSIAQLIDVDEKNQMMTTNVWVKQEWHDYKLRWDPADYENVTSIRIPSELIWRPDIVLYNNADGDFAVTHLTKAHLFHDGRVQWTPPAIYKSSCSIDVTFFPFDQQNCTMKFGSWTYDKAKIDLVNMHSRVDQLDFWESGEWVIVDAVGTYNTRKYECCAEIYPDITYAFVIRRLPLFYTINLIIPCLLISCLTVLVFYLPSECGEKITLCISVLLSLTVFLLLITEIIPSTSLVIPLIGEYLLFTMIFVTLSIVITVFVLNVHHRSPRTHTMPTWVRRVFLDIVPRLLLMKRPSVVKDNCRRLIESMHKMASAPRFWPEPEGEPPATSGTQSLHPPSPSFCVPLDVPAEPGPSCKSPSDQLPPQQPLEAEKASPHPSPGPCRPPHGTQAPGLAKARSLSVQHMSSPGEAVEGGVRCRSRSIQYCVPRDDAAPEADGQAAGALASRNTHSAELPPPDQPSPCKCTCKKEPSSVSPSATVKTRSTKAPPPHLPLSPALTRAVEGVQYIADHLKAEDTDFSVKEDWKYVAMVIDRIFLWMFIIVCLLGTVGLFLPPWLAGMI
The following applies: cited from earlier work.

Data set [3] deals with T4, HS α4(2)β2(3) nAChR (Homo sapiens, UniProt P17787+P43681).
T4 construct: host or cells: Xenopus laevis oocytes injected with cRNA
T4 sequence (P17787+P43681 fused): as the sequence (P17787+P43681 fused) above
T4 sequence (P17787 26-502): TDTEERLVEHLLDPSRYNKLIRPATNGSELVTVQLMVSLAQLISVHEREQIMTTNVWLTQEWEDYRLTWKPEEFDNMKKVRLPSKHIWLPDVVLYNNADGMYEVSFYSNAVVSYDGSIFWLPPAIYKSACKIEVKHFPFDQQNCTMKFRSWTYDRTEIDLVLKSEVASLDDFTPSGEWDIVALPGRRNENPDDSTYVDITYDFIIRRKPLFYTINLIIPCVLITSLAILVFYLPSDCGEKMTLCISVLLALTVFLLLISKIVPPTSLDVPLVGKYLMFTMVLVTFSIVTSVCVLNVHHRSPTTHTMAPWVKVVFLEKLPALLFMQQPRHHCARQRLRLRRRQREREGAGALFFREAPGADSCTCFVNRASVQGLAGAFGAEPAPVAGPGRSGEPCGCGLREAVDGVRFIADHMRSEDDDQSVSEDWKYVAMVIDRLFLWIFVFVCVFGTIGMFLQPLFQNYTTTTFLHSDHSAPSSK
The following applies: cited from earlier work.

Data set [4] deals with T3, LS α4(3)β2(2) nAChR. The experiment in a line: Two-electrode voltage clamp of Xenopus oocytes expressing low sensitivity α4β2 nAChR (β2-α4 concatamer plus α4 monomer). Type of data set: cell-based. The protocol: (§3) Human nAChR clones and concatamers were obtained from Dr. J. Lindstrom (University of Pennsylvania, Philadelphia, PA). The human resistance-to-cholinesterase 3 (RIC-3) clone, obtained from Dr. M. Treinin (Hebrew University, Jerusalem, Israel), was co-injected with α7 to improve the level and speed of α7 receptor expression without affecting the pharmacological properties of the receptors. Subsequent to linearization and purification of the plasmid cDNAs, cRNAs were prepared using the mMessage mMachine in vitro RNA transfection kit (Ambion, Austin, TX). […]
(§4) Experiments were conducted using OpusXpress 6000A (Molecular Devices, Union City, CA). […] The responses of α4β2 and α3β4-expressing cells were measured as peak current amplitudes, and the α7 data were calculated as net charge, as previously described.
(§5) Data were collected at 50 Hz, filtered at 20 Hz, analyzed by Clampfit 9.2 (Molecular Devices) and Excel 2003 (Microsoft, Redmond, WA), and normalized to the averaged peak current or net-charge response of the two initial ACh controls for each oocyte. Data were expressed as means ± SEM from at least four oocytes for each experiment and plotted by Kaleidagraph 3.0.2 (Abelbeck Software, Reading, PA). Multi-cell averages were calculated for comparisons of complex responses. […]

Data set [5] concerns the target T2, α6β2β3α4β2 concatamer nAChR. The data set is described as follows: Two-electrode voltage clamp of Xenopus oocytes expressing the α6-containing concatamer. Format: cell-based. On the procedure:
as §1
(§6) Oocytes were surgically removed from mature Xenopus laevis frogs (Nasco, Ft. Atkinson, WI) and injected with appropriate nAChR subunit cRNAs as described previously. Frogs were maintained in the Animal Care Service facility of the University of Florida, and all procedures were approved by the University of Florida Institutional Animal Care and Use Committee. In brief, the frog was first anesthetized for 15–20 min in 1.5 L frog tank water containing 1 g of 3-aminobenzoate methanesulfonate buffered with sodium bicarbonate. […]
as §4
as §2, with “To permit better comparisons between experiments each single cell response was normalized to the average of the two initial controls obtained from that cell.” left out

Data set [6] has as its system α4β2 nAChR (mixed populations formed from monomers). The experiment in a line: Two-electrode voltage clamp of Xenopus oocytes expressing α4β2 nAChR formed from monomers. Format: cell-based, human. The following applies: 100 μM arecoline; α4 and β2 monomers. The protocol:
as §3, §4, §5

The target in data set [7] is T4, HS α4(2)β2(3) nAChR. The data set is described as follows: Two-electrode voltage clamp of Xenopus oocytes expressing high sensitivity α4β2 nAChR (β2-α4 concatamer plus β2 monomer). Type of data set: cell-based. On the procedure: as §1, §6, §4
as §2, with “To permit better comparisons between experiments each single cell response was normalized to the average of the two initial controls obtained from that cell.” left out, “averages. […]” for “averages.”

Details of data set [8]: method as in PMID 20412403. The following applies: 90% of betel chewers, prior to chewing; cited from earlier work.
[9] abbreviates: 100 μM arecoline co-applied with 10 μM PNU-120596, 60 μM ACh controls, n = 7.
The mark [10] stands for this setting: co-applied with 30 μM PNU-120596, relative to 60 μM ACh controls.

Entries after “also recorded” stand apart in the source; their conditions may differ. Like-named read-outs stand apart in the source and are kept apart here. Marks after values point to notes of the source that are not given here.

T1 sequence (P36544 23-502): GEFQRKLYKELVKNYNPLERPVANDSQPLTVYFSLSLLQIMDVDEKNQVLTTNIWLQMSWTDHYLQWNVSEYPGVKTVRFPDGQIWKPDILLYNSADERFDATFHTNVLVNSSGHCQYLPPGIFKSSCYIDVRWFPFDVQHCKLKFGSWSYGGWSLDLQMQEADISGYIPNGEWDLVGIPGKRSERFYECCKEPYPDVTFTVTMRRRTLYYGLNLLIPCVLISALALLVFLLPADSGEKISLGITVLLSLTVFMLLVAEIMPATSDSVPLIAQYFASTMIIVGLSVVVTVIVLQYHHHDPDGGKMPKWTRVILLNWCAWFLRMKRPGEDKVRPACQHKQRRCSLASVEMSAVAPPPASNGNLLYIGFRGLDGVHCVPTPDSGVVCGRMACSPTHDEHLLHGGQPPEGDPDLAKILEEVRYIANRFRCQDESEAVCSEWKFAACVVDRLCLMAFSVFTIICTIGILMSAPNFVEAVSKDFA
T2 sequence (Q15825 26-494): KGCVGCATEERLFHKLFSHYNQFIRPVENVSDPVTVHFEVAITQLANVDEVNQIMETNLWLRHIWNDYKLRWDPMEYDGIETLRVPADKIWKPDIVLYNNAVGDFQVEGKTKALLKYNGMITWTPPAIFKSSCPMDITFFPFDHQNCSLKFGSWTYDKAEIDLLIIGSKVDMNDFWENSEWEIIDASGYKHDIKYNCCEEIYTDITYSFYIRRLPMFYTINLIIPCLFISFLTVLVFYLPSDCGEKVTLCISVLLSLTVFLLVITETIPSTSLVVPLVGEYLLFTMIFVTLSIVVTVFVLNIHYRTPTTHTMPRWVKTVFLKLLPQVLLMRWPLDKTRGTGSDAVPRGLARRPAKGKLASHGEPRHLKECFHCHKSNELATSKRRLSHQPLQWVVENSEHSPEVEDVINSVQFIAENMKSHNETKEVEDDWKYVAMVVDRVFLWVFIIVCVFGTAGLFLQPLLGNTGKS
T2 sequence (P17787 26-502): as the sequence (P17787 26-502) above
T2 sequence (P43681 27-627): as the sequence (P43681 27-627) above
T2 sequence (Q05901 22-458 partner): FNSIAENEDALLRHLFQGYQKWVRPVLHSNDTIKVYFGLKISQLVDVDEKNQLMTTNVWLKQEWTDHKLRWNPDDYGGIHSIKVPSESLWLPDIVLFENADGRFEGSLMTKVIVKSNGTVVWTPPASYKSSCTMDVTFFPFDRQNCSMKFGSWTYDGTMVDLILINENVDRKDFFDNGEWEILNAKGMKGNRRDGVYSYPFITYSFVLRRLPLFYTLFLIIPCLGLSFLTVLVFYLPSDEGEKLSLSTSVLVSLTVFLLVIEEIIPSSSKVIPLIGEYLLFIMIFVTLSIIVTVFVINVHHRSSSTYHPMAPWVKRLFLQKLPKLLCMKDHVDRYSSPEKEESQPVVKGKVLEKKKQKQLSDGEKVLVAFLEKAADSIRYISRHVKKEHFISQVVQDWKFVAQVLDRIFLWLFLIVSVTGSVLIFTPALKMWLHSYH

Regarding `C[N+](C)(C)CCOC(N)=O` [carbachol, reference compound], at human α7 nAChR, the “activation of α7 in the presence of PNU-120596” value (from here on “activation of α7 … of PNU-120596”) is listed as “stimulated α7 receptors under both conditions” and the “activation of α7 when applied alone (absence of PAM)” value (from here on “activation of α7 when applied alone”) was “stimulated α7 receptors under both conditions”.
For `O=C1CCCN1CC#CCN1CCCC1` [oxotremorine, reference compound], on human α7 nAChR, the “activation of α7 … of PNU-120596” value is listed as “relatively little additional activation” and the “activation of α7 when applied alone” value is reported as “small but significant activation”.
Consider `O=c1cccc2n1C[C@@H]1CNC[C@H]2C1` [cytisine], for which the “Imax relative to ACh” value in data set [1] is reported as 0.11 ± 0.03 ^c; on LS α4(3)β2(2) nAChR [2] it was 0.10 ± 0.02 ^a; on HS α4(2)β2(3) nAChR [3] it was ≤ 0.05 ^a.
For `CC(=O)OC(C)C[N+](C)(C)C` (stereo not shown) [methacholine, reference compound], on human α7 nAChR, the “activation of α7 … of PNU-120596” value was “not as active as arecoline” and the “activation of α7 when applied alone” value is given as “silent agonist”.
Consider `c1cnc2cc3c(cc2n1)[C@@H]1CNC[C@H]3C1` [varenicline], for which the “Imax relative to ACh” value in [1] was 0.18 ± 0.11 ^c; at LS α4(3)β2(2) nAChR [2] it was 0.08 ^b; at HS α4(2)β2(3) nAChR [3], 0.13 ^b.
As for `C[C@@H]1O[C@H](C[N+](C)(C)C)C[C@H]1O` [muscarine, reference compound], on human α7 nAChR, the “activation of α7 … of PNU-120596” value was “failed to activate the receptors under either condition” and the “activation of α7 when applied alone” value is “failed to activate the receptors under either condition”.
In general, EC50 refers to the midpoint of the concentration-response curve. In general, IC50 refers to the midpoint of a concentration-inhibition curve. For the compound `COC(=O)C1=CCCN(C)C1` [arecoline], the EC50 at LS α4(3)β2(2) nAChR [4] (LS α4β2, responses relative to ACh maximum) came out at 75 ± 7 µM; in [5] (α6-containing receptor, responses relative to ACh maximum) it was 21 ± 4 µM; at human α7 nAChR (co-applied with 30 μM PNU-120596, read-out: EC50, net charge), 93 ± 2 µM; at human α7 nAChR (co-applied with 30 μM PNU-120596, read-out: EC50, peak currents), 60 ± 7 µM; on HS α4(2)β2(3) nAChR [7] (HS α4β2, responses relative to ACh maximum), 14 ± 3 µM. Moreover, the figures for the “Imax relative to ACh” value (at LS α4(3)β2(2) nAChR [4] (α4(3)β2(2)); in data set [5] (α6β2β3α4β2); at HS α4(2)β2(3) nAChR [7] (α4(2)β2(3))) were 0.036 ± 0.003, 0.056 ± 0.003 and 0.054 ± 0.004, respectively. Further, the “response to arecoline (activation)” value is “small but significant activity; also recorded: substantially larger and well above the threshold of detection” in data set [5] (100 μM arecoline); “small but significant activity; also recorded: substantially larger and well above the threshold of detection” in [6]. In addition, on human α7 nAChR (60 μM ACh applied after the test application and wash), the “effect on subsequent ACh-evoked responses” value is “largely unaffected”. Besides, on human α7 nAChR (100 μM arecoline applied alone, extrapolated from ACh controls and earlier ACh concentration-response studies), the “response relative to ACh maximum” value is given as “less than 1%”. At human α7 nAChR (setting [9]), the “net charge of response relative to ACh controls” value is listed as 37 ± 10 times. Besides, on human α7 nAChR (setting [9]), the “peak amplitude of response relative to ACh controls” value was 9.6 ± 3.4 times. In addition, the “Imax relative to ACh controls, net charge” value at human α7 nAChR (setting [10]) came to 49 ± 1. For the same compound, the “Imax relative to ACh controls, peak currents” value at human α7 nAChR (setting [10]) stood at 15 ± 1. Moreover, at human α7 nAChR, the “activation of α7 when applied alone” value is “did not produce significant activation”. Also, the IC50 on human α7 nAChR (simple co-application with 60 μM ACh, no PAM, read-out: IC50 for inhibiting 60 μM ACh-evoked responses) is > 1000 µM. Besides, the “mecamylamine-sensitive steady-state activation relative to ACh maximum” value on HS α4(2)β2(3) nAChR [7] (prolonged bath application of 3 μM arecoline, revealed with 100 μM mecamylamine, seven cells) is recorded as ~1%. The “residual salivary level of arecoline” value in [8] was “at least 400 nM”.

Source of the values: article PMC4619380, “Nicotinic Activity of Arecoline, the Psychoactive Element of "Betel Nuts", Suggests a Basis for Habitual Use and Anti-Inflammatory Activity” (PLoS ONE, 2015).
